The subject of experiment [1] is Staphylococcus aureus USA300. The settings on record: S. aureus USA300. Here is the method:
(§1) The MIC assays were performed as previously described ([43]). Briefly, peptides were plated in a 2-fold dilution series (50 μL/well) of Mueller-Hinton broth (MHB) in Costar 96-well cell culture plates (Corning, NY, USA). Three repeats were set for each concentration. E. coli ATCC 25922, A. hydrophila ATCC 7966, P. aeruginosa PAO1, P. aeruginosa FRD1, S. aureus ATCC 25923, S. agalactiae ATCC 13813, S. pneumoniae ATCC 49619, methicillin-resistant S. aureus ATCC 43300, and methicillin-resistant S. aureus USA300 were cultured in Luria-Bertani (LB) medium, while K. pneumoniae CMCC46117 was cultured in tryptic soy broth (TSB) medium. Incubation was done at 37°C and 150 × g for 12 h. Bacteria were transferred to fresh MHB at a ratio of 1% (vol/vol) and incubated to reach a logarithmic growth phase. Then, 50 μL of a bacterial suspension at 4 × 10^6 CFU/mL was added to each well. After incubation at 37°C for 22 ± 2 h, turbidity was measured using an EnSpire multimode plate reader (PerkinElmer, Singapore) at 595 nm.

The subject of experiment [2] is Streptococcus agalactiae ATCC 13813. Type of experiment: cell-based. The following applies: ATCC 13813, 2 h. Here is the method:
as §1, with “After incubation at 37°C for 22 ± 2 h, turbidity was measured using an EnSpire multimode plate reader (PerkinElmer, Singapore) at 595 nm.” left out

In experiment [3] the test system is Aeromonas hydrophila ATCC 7966. Type of experiment: cell-based. The following applies: ATCC 7966, 2 h. Here is the method:
as §1, with “After incubation at 37°C for 22 ± 2 h, turbidity was measured using an EnSpire multimode plate reader (PerkinElmer, Singapore) at 595 nm.” left out

The subject of experiment [4] is Escherichia coli ATCC 25922. Type of experiment: cell-based. The following applies: ATCC 25922, 2 h. Here is the method: as §1, with “After incubation at 37°C for 22 ± 2 h, turbidity was measured using an EnSpire multimode plate reader (PerkinElmer, Singapore) at 595 nm.” left out
Experiment [5] concerns Staphylococcus aureus ATCC 25923. In kind it is cell-based. The settings on record: ATCC 25923, 2 h. Here is the method: as §1, with “After incubation at 37°C for 22 ± 2 h, turbidity was measured using an EnSpire multimode plate reader (PerkinElmer, Singapore) at 595 nm.” left out
The test system of experiment [6] is Pseudomonas aeruginosa PAO1. In kind it is cell-based. The following applies: PAO1, 2 h. Here is the method: as §1, with “After incubation at 37°C for 22 ± 2 h, turbidity was measured using an EnSpire multimode plate reader (PerkinElmer, Singapore) at 595 nm.” left out
The test system of experiment [7] is Klebsiella pneumoniae CMCC46117. Type of experiment: cell-based. The settings on record: CMCC46117, 2 h. Here is the method: as §1, with “After incubation at 37°C for 22 ± 2 h, turbidity was measured using an EnSpire multimode plate reader (PerkinElmer, Singapore) at 595 nm.” left out
Experiment [8] relates to Streptococcus pneumoniae ATCC 49619. In kind it is cell-based. The settings on record: ATCC 49619, 2 h. Here is the method: as §1, with “After incubation at 37°C for 22 ± 2 h, turbidity was measured using an EnSpire multimode plate reader (PerkinElmer, Singapore) at 595 nm.” left out
The subject of experiment [9] is E. coli ATCC 25922. In words: SYTOX green membrane permeability assay. Type of experiment: cell-based, Escherichia coli. The following applies: E. coli ATCC 25922, 5 μM SYTOX green, read every 1 min. Here is the method: The SYTOX green staining assay was performed to assess peptide-associated membrane damage ([47], [52]). E. coli ATCC 25922 and S. aureus ATCC 25923 cells in the mid-logarithmic phase were collected, washed thrice, and resuspended (5 × 10^7 CFU/mL) in buffer B (10 mM Tris-HCl, pH 7.4, at 25°C). The bacterial suspensions were mixed with 5 μM SYTOX green and incubated for 15 min at room temperature in the dark. Then, the mixtures were added to black, clear-bottom 96-well plates at a density of 100 μL/well. After peptide addition, SYTOX green uptake was monitored using an EnSpire multimode plate reader (PerkinElmer, Singapore) with an excitation wavelength of 485 nm and an emission wavelength of 520 nm. Each measurement interval was 1 min, totaling 30 to 60 times. Melittin was used as the positive control, while bovine serum albumin (BSA) was the negative control.

In experiment [10] the test system is P. aeruginosa FRD1. In kind it is cell-based, Pseudomonas aeruginosa. The following applies: FRD1, 2 h. Here is the method: as §1, with “After incubation at 37°C for 22 ± 2 h, turbidity was measured using an EnSpire multimode plate reader (PerkinElmer, Singapore) at 595 nm.” left out
In experiment [11] the test system is Methicillin-resistant S. aureus USA300. In kind it is cell-based, Staphylococcus aureus. The following applies: USA300, 2 h. Here is the method: as §1, with “After incubation at 37°C for 22 ± 2 h, turbidity was measured using an EnSpire multimode plate reader (PerkinElmer, Singapore) at 595 nm.” left out
For experiment [12], the system named is Methicillin-resistant S. aureus ATCC 43300. Type of experiment: cell-based, Staphylococcus aureus. The following applies: ATCC 43300, 2 h. Here is the method:
as §1, with “After incubation at 37°C for 22 ± 2 h, turbidity was measured using an EnSpire multimode plate reader (PerkinElmer, Singapore) at 595 nm.” left out

Converted amounts (≈) assume the structure as drawn. Residues, ends and D or L forms follow the SMILES beside them. A value given as a limit tells only on which side of the number the result lay.

In general, MIC refers to the lowest concentration that inhibits growth of the organism. High values mean weaker potency, low ones greater potency.

On to `CC[C@H](C)[C@H](NC(=O)CN)C(=O)NCC(=O)N[C@@H](C)C(=O)N[C@H](C(=O)N[C@@H](CC(C)C)C(=O)N[C@@H](CCCCN)C(=O)N[C@H](C(=O)N[C@@H](CC(C)C)C(=O)N[C@H](C(=O)N[C@H](C(=O)NCC(=O)N[C@@H](CC(C)C)C(=O)N1CCC[C@H]1C(=O)N[C@@H](C)C(=O)N[C@@H](CC(C)C)C(=O)N[C@H](C(=O)N[C@@H](CO)C(=O)N[C@@H](Cc1c[nH]c2ccccc12)C(=O)N[C@H](C(=O)N[C@@H](CCCCN)C(=O)N[C@@H](CCCNC(=N)N)C(=O)N[C@@H](CCCCN)C(=O)N[C@@H](CCCNC(=N)N)C(=O)N[C@@H](CCC(N)=O)C(=O)N[C@@H](CCC(N)=O)C(N)=O)[C@@H](C)CC)[C@@H](C)CC)[C@@H](C)O)[C@@H](C)O)C(C)C)C(C)C` [Melittin], for which, in experiment [1] (6 μM NH4Cl), the “MIC in 6 μM NH4Cl” value came to 6.25 µg/mL (≈ 2.2 µM). For the same compound, in [1] (1 mM MgCl2), the “MIC in 1 mM MgCl2” value worked out at 6.25 µg/mL (≈ 2.2 µM). The “MIC in 2.5 mM CaCl2” value in experiment [1] (2.5 mM CaCl2) stood at 6.25 µg/mL (≈ 2.2 µM). For the same compound, the “MIC in 4.5 mM KCl” value in experiment [1] (4.5 mM KCl) was 6.25 µg/mL (≈ 2.2 µM). For the same compound, in experiment [1] (150 mM NaCl), the “MIC in 150 mM NaCl” value came to 6.25 µg/mL (≈ 2.2 µM). Also, the “MIC in MS at concn 10%” value in [1] (10% mouse serum) was 25.00 µg/mL (≈ 8.78 µM). Moreover, the “MIC in MS at concn 20%” value in experiment [1] (20% mouse serum) stood at 50.00 µg/mL (≈ 17.6 µM). In addition, the “MIC in MS at concn 40%” value in [1] (40% mouse serum) was determined as 200.00 µg/mL (≈ 70.3 µM). Besides, in experiment [1] (control, bacteria treated with peptide only), the “MIC in Control” value stood at 6.25 µg/mL (≈ 2.2 µM).
Regarding `CC[C@H](C)[C@H](NC(=O)[C@H](CCCCN)NC(=O)[C@H](CCSC)NC(=O)[C@H](C)NC(=O)[C@H](CC(C)C)NC(=O)[C@H](Cc1c[nH]cn1)NC(=O)[C@H](CCCNC(=N)N)NC(=O)[C@H](CCCCN)NC(=O)[C@H](CCCCN)NC(=O)[C@H](CCCCN)NC(=O)[C@H](CCSC)NC(=O)[C@H](CC(C)C)NC(=O)[C@H](CC(C)C)NC(=O)[C@H](CC(=O)O)NC(=O)[C@H](CC(C)C)NC(=O)[C@H](Cc1c[nH]cn1)NC(=O)[C@H](CCCCN)NC(=O)[C@H](CCCCN)NC(=O)[C@@H](NC(=O)[C@H](CCCNC(=N)N)NC(=O)[C@@H]1CCCN1C(=O)[C@H](Cc1c[nH]cn1)NC(=O)[C@H](C)N)[C@@H](C)CC)C(=O)N[C@@H](C)C(=O)N[C@@H](C)C(=O)N1CCC[C@H]1C(=O)O` [chCCL27a-26] (H-AHPRIKKHLDLLMKKKRHLAMKIAAP-OH; N-terminus and C-terminus assumed), the MIC in experiment [2] is 25.00 µg/mL (≈ 8.21 µM); in experiment [3], over 50.00 µg/mL; in experiment [4], 25.00 µg/mL (≈ 8.21 µM); in experiment [5], 12.50 µg/mL (≈ 4.1 µM); in [6], 25.00 µg/mL (≈ 8.21 µM); in experiment [7], over 50.00 µg/mL. Moreover, the MIC in experiment [8], in experiment [10], in experiment [11] and in [12] was 25.00 µg/mL (≈ 8.21 µM) in each case. Moreover, in experiment [9], the “SYTOX green fluorescence intensity” value is reported as “fluorescence trends similar to the trends in E. coli cells treated with lcCCL28-25”.
Take `CSCC[C@H](NC(=O)[C@H](CCCNC(=N)N)NC(=O)[C@H](CCCCN)NC(=O)[C@H](CCSC)NC(=O)[C@H](CC(C)C)NC(=O)[C@H](CCCCN)NC(=O)[C@H](CCC(N)=O)NC(=O)[C@H](CC(C)C)NC(=O)[C@H](Cc1ccccc1)NC(=O)[C@H](CCC(N)=O)NC(=O)[C@H](CCC(=O)O)NC(=O)[C@H](CCSC)NC(=O)[C@H](CCCCN)NC(=O)[C@@H]1CCCN1C(=O)[C@@H](NC(=O)[C@H](C)N)[C@@H](C)O)C(=O)N[C@@H](C)C(=O)N[C@@H](CCCNC(=N)N)C(=O)N[C@@H](CC(C)C)C(=O)N[C@@H](CCCCN)C(=O)N[C@@H](C)C(=O)N[C@@H](CO)C(=O)N[C@@H](C)C(=O)N[C@H](C(=O)O)C(C)C` [drCCL27b-24] (H-ATPKMEQFLQKLMKRMARLKASAV-OH; N-terminus and C-terminus assumed): the MIC is 25.00 µg/mL (≈ 9 µM) in experiment [2]; over 50.00 µg/mL in experiment [3]; 25.00 µg/mL (≈ 9 µM) in experiment [4]; 25.00 µg/mL (≈ 9 µM) in [5]; 25.00 µg/mL (≈ 9 µM) in experiment [6]; over 50.00 µg/mL in [7]. In addition, the MIC in experiment [8], in experiment [10], in [11] and in [12] was 25.00 µg/mL (≈ 9 µM) throughout. Moreover, in experiment [9], the “SYTOX green fluorescence intensity” value was “fluorescence trends similar to the trends in E. coli cells treated with lcCCL28-25”.
Take `CC[C@H](C)[C@H](NC(=O)[C@H](C)NC(=O)[C@H](CCCCN)NC(=O)[C@H](CCSC)NC(=O)[C@H](CCCCN)NC(=O)[C@H](CC(C)C)NC(=O)[C@@H]1CCCN1C(=O)[C@H](C)N)C(=O)N[C@@H](CC(C)C)C(=O)N[C@@H](CCC(=O)O)C(=O)N[C@H](C(=O)N[C@H](C(=O)N[C@@H](Cc1c[nH]cn1)C(=O)N[C@@H](CCCNC(=N)N)C(=O)N[C@@H](CCCNC(=N)N)C(=O)N[C@@H](CCSC)C(=O)N[C@@H](CCCCN)C(=O)N[C@@H](CCC(N)=O)C(=O)N[C@@H](CC(N)=O)C(=O)N[C@@H](CCCCN)C(=O)N[C@@H](CCSC)C(=O)N[C@@H](CCCCN)C(=O)N[C@@H](C)C(=O)N[C@@H](C)C(=O)N[C@@H](Cc1ccccc1)C(=O)O)C(C)C)[C@@H](C)CC` [smCCL27b-25] (H-APLKMKAILEIVHRRMKQNKMKAAF-OH; N-terminus and C-terminus assumed): the MIC is 25.00 µg/mL (≈ 8.46 µM) in experiment [2]; over 50.00 µg/mL in [3]; 50.00 µg/mL (≈ 16.9 µM) in experiment [4]; 25.00 µg/mL (≈ 8.46 µM) in experiment [5]; 50.00 µg/mL (≈ 16.9 µM) in [6]; over 50.00 µg/mL in [7]. The MIC in [8] was 25.00 µg/mL (≈ 8.46 µM); in experiment [10], 25.00 µg/mL (≈ 8.46 µM); in [11], 25.00 µg/mL (≈ 8.46 µM); in [12], over 50.00 µg/mL. For the same compound, in experiment [9], the “SYTOX green fluorescence intensity” value was “increased rapidly within 20 min”.
